Test system: HCT-8
Test: Cytotoxicity against human HCT8 cells after 72 hrs by MTT assay
Format: functional, cell-based
Settings: HCT-8, 72 h

CCCc1ccc2c(O)c3c(c(O)c2c1)C(=O)c1cccc(O)c1C3=O
IC50: 12.7 µM

CCC[C@@]1(O)C[C@H](O)c2c(O)c3c(c(O)c2[C@H]1C(=O)OC)C(=O)c1cccc(O)c1C3=O
IC50: 6.2 µM

COc1cccc2c1C(=O)c1c(O)c3c(c(O)c1C2=O)C[C@@](O)(C(=O)CO)C[C@@H]3O[C@H]1C[C@H](N)[C@H](O)[C@H](C)O1 [DOXORUBICIN]
IC50: 0.1 µM

CCC[C@@]1(O)CCC2=C(C1)C(=O)c1cc3cccc(OC)c3cc1C2=O
IC50: > 70 µM

CCCc1ccc2c(c1)C(=O)c1cc3cccc(OC)c3cc1C2=O
IC50: > 70 µM

— ChEMBL document CHEMBL2021875, “Anthracyclinones from Micromonospora sp” (J Nat Prod, 2012)
